Non-standard residues stand in square brackets, D forms with d. Residues, ends and D or L forms follow the SMILES beside them.
Assays:
Type in all cases: biochemical
PC2 = biological target: T1, PC2 (Mus musculus, UniProt P21661); assay: PC2 enzyme assay, hydrolysis of pERTKR-MCA at pH 5.0; design: made in house
T1 sequence (P21661 109-637): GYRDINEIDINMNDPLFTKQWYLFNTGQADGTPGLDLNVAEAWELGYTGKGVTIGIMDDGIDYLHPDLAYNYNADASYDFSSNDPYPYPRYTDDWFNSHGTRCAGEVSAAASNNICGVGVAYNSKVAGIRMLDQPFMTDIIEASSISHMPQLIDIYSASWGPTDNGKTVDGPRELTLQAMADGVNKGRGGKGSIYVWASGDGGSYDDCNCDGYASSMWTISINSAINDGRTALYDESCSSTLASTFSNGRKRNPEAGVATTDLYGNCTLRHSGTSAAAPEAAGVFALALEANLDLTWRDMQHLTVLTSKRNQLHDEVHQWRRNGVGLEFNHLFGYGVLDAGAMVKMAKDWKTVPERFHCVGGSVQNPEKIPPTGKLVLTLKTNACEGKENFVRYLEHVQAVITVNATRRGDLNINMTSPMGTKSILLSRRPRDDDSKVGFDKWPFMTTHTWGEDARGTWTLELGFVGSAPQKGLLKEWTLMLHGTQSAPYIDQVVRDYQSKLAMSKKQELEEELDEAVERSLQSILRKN
Procedure: (§1) The proprotein convertases PC1 and PC2 were prepared by ion exchange chromatography as described in G. Frenette et al., Biochim. Biophys. Acta., vol. 1334, pp. 109-115 (1997).
(§2) Enzyme Assays and Hexapeptide Library Screening. Enzyme assays for PC1 and PC2 were performed at pH 5.0 using pERTKR-MCA (Peptides International Inc., Louisville, Ky.) as described in E. Apletalina et al., J. Biol. Chem., vol. 273, pp. 26589-26595 (1998). The assay for furin was performed using the same substrate at pH 7.0 in 100 mM HEPES, 5 mM CaCl2, 0.1% Brij 35. All assays were performed at 37° C. in a 96 well fluorometer (Labsystems) at an excitation wavelength of 380 nm with emission monitored at a wavelength of 460 nm. The total volume was 50 μL. Unless otherwise stated, the final substrate concentration for all assays was 200 μM. When used in a particular experiment, the inhibitory peptides were pre-incubated with enzyme for 30 min at room temperature prior to addition of substrate. All assays were performed in duplicate or triplicate.

recombinant mouse furin = biological target: T2, recombinant mouse furin (Mus musculus, UniProt P23188); assay: Furin enzyme assay, hydrolysis of pERTKR-MCA at pH 7.0; conditions: for type of inhibition of furin (Lineweaver-Burk plots): furin 30 nM, 0, 20 or 40 μM hexapeptide, polyarginines forty-fold lower
T2 construct: truncated N-terminally to the transmembrane domain at His^711 using PCR; myc (C, cleaved yes); hexa-His (C, cleaved yes); made in house; host or cells: DG44 CHO cells, conditioned medium
Description: Recombinant convertase preparation. The mouse furin clone was a kind gift from K. Nakayama (Fukuoka University School of Medicine, Fukuoka, Japan). The mouse furin cDNA was truncated N-terminally to the transmembrane domain at His^711 using PCR. This PCR product was then subcloned into pcDNA3.1 (−) myc-His (Invitrogen) at the Nhe1 and Xba1 restriction sites. Dihydrofolate-reductase-negative DG44 Chinese Hamster Ovary (CHO) cells (L. Chasin, Columbia University, New York, N.Y.) were transfected using Lipofectin (Life Technologies), and colonies were selected at 37° C. in 5% CO2 in α-MEM (lacking nucleosides) containing 10% well-dialyzed fetal bovine serum (Life Technologies). Conditioned media from colonies were screened using an enzyme assay (see below), and a high-expressing clone was selected. Overexpression of furin was achieved by increasing the methotrexate concentration from 5 nM to 50 μM in five- to ten-fold steps as described in I. Lindberg et al., Methods Neurosci., vol. 23, pp. 94-108 (1995). The amplified lines were tested for increased furin expression by enzyme assay. Once the 50 μM methotrexate level had been reached, cells were split at ratios of 1:6 twice a week. 100 mL of conditioned media (OptiMEM, Life Technologies) containing 100 μg/mL aprotinin (Miles Laboratories, Kankakee, Ill.) was collected from confluent roller bottles every 24 h. The medium was then centrifuged at low speed to remove cells, and the supernatant was stored at −80° C. until use.
Purification of furin: Conditioned medium was thawed, pooled, and diluted 1:3.5 with buffer A (20 mM HEPES, 0.1% Brij 35, 5 mM CaCl2, pH 7.4), and pumped at 40 mL/min through a Sartorius D100 anion exchange membrane. The membrane was washed with 40 mL of buffer A, followed by 40 mL of buffer A containing 50 mM NaCl, and finally by 40 mL of buffer A containing 200 mM NaCl. The fraction eluting with 200 mM NaCl was diluted 1:4 with buffer A and applied to a 1 mL Pharmacia Mono Q HR5/5 anion exchange column at a flow rate of 1 mL/min. Following a 10 mL wash with buffer A, furin was eluted by a linear increase of 0 to 500 mM NaCl in buffer A over 30 mL; and 2 mL fractions were collected. Fractions containing peak activity were pooled, and 200 μL aliquots were subjected to gel permeation chromatography using a Pharmacia Superose 12 column at a flow rate of 0.5 mL/min of buffer A containing 200 mM NaCl. Fractions were assayed for activity as described below; protein content was determined using the Bradford method. All purification steps were performed at 4° C.
as §2

PC1 = biological target: T3, PC1 (Mus musculus, UniProt P63239); assay: biochemical
T3 construct: made in house
T3 sequence (P63239 111-753): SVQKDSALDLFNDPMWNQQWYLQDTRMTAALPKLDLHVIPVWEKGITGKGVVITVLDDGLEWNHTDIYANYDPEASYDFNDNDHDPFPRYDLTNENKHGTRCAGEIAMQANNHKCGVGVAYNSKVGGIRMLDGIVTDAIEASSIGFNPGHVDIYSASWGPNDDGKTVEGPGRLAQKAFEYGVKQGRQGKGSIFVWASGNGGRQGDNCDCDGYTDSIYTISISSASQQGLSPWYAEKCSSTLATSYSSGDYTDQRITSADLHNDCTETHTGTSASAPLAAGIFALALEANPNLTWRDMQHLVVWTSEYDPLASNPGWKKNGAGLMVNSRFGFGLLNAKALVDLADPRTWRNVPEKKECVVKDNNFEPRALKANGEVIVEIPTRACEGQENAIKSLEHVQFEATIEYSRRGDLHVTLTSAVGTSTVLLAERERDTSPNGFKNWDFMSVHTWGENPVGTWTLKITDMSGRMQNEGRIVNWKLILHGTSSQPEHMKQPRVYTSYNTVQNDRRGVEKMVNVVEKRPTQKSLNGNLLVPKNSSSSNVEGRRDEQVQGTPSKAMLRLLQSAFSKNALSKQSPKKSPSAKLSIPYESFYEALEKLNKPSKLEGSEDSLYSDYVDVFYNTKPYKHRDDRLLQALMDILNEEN
Procedure: as §1, §2

PACE4 = biological target: T4, PACE4 (Rattus norvegicus, UniProt Q63415); assay: PACE4 enzyme assay, hydrolysis of pERTKR-MCA
T4 construct: made in house; host or cells: stably transfected hEK-293 cells (gift of R. E. Mains), conditioned medium
T4 sequence (Q63415 133-937): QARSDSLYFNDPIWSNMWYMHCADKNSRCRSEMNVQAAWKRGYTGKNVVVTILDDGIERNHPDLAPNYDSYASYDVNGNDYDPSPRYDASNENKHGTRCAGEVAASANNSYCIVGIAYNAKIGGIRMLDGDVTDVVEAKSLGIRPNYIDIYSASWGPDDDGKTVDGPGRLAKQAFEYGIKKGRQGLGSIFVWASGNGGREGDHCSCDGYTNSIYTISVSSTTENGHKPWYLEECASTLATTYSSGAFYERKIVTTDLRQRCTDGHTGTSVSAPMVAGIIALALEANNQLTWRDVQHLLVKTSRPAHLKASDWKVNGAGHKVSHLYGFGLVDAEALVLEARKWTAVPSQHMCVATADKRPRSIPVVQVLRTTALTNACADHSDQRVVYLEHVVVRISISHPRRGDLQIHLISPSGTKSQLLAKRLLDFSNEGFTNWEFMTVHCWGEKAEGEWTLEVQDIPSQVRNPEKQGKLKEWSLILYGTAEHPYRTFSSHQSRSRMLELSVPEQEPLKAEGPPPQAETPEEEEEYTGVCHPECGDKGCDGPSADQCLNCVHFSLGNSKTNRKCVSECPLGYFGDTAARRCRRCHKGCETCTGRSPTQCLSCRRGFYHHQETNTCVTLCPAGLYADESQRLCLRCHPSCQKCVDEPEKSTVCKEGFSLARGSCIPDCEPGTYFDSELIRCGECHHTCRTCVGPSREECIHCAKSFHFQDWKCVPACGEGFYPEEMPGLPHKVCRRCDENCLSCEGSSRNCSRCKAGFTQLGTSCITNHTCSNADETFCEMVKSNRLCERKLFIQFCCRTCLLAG
Procedure: The proprotein convertase PACE4 was partially purified from an overnight-conditioned medium of stably transfected hEK-293 human embryonic kidney cells (a generous gift of R. E. Mains, Johns Hopkins University School of Medicine, Baltimore, Md.). Briefly, 100 mL of conditioned medium (OptiMEM containing 100 μg/mL aprotinin) was loaded onto an Econo-Pac Q (Bio-Rad) column at 4 mL/min, washed with 10 mL of buffer A, and then eluted with a linear gradient of buffer A containing 500 mM NaCl over 50 mL. The active fractions were then diluted 1:4 with buffer A prior to loading onto a Mono Q column (Pharmacia) at 1 mL/min. The PACE4 was eluted with a linear gradient of buffer A containing 500 mM NaCl over 10 mL. The resulting active fractions were then pooled and stored at −80° C. until use.
as §2

T2 sequence (P23188 108-714 limits assumed): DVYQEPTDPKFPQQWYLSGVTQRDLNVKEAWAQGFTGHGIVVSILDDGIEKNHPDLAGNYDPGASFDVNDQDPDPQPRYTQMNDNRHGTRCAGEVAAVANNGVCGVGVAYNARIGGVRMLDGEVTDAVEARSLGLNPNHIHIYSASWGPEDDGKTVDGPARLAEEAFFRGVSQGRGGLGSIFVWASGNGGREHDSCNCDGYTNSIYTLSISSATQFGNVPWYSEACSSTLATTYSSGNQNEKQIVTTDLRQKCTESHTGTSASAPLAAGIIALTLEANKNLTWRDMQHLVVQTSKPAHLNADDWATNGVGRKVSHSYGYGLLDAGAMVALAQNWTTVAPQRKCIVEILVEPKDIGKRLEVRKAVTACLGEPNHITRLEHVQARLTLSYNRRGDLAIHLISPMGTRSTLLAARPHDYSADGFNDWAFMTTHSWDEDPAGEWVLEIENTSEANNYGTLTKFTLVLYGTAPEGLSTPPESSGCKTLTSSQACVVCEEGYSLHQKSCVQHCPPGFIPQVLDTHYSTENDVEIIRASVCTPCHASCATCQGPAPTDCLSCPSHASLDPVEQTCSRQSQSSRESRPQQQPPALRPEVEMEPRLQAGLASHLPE

Ac-HRKRRR-NH2 [Ac-HRKRRR-NH2]
Ki (PC2): 309 ± 29 µM

Ac-RHKRRR-NH2 [Ac-RHKRRR-NH2]
Ki (recombinant mouse furin): 3.4 ± 0.6 µM
Ki (PC2): 152 ± 30 µM

Ac-KRKRRR-NH2 [Ac-KRKRRR-NH2]
Ki (PC2): 391 ± 60 µM

CC(=O)N[C@H](Cc1c[nH]c2ccccc12)C(=O)N[C@H](CCCNC(=N)N)C(=O)N[C@H](CCCNC(=N)N)C(=O)N[C@H](CCCNC(=N)N)C(=O)N[C@H](CCCNC(=N)N)C(=O)N[C@H](CCCNC(=N)N)C(N)=O [Ac-wrrrrr-NH2] (Ac-[dW][dR][dR][dR][dR][dR]-NH2)
Ki (recombinant mouse furin): 2.4 ± 0.8 µM
type of inhibition of furin (Lineweaver-Burk plots) (recombinant mouse furin): strictly competitive-type inhibition
Ki (PC2): 334 ± 37 µM

CC(C)C[C@H](NC(=O)[C@@H](N)CC(C)C)C(=O)N[C@@H](CCCNC(=N)N)C(=O)N[C@H](C(=O)N[C@@H](CCCCN)C(=O)N[C@@H](CCCNC(=N)N)C(N)=O)C(C)C [LLRVKR-NH2]
Ki (PC2): 2.3 ± 0.2 µM

N=C(N)NCCC[C@H](NC(=O)[C@H](CCCNC(=N)N)NC(=O)[C@H](CCCNC(=N)N)NC(=O)[C@@H](N)CCCNC(=N)N)C(=O)O [Tetra-L-arginine] (H-RRRR-OH)
Ki (PC1): > 200 µM
inhibition of PC1 (PC1; μM concentrations): not inhibited
Ki (PACE4): > 200 µM
inhibition of PACE4 (PACE4; mM concentrations): not found to inhibit even at mM concentrations

H-RRRRR-OH [Penta-L-arginine]
Ki (PC1): 14 ± 6.1 µM
Ki (PACE4): 0.98 ± 0.12 µM

Ac-KHKRRR-NH2 [Ac-KHKRRR-NH2]
Ki (PC2): 280 ± 29 µM

CC(=O)N[C@@H](CC(C)C)C(=O)N[C@@H](CC(C)C)C(=O)N[C@@H](CCCN=C(N)N)C(=O)N[C@H](C(=O)N[C@@H](CCCCN)C(=O)N[C@@H](CCCN=C(N)N)C(=O)O)C(C)C [Ac-LLRVKR]
Ki (PC2): 1.3 ± 0.6 µM

Ac-HHKRRR-NH2 [Ac-HHKRRR-NH2]
Ki (PC2): 235 ± 16 µM

Ac-RRKRRR-NH2 [Ac-RRKRRR-NH2]
type of inhibition of furin (Lineweaver-Burk plots) (recombinant mouse furin): strictly competitive-type inhibition
Ki (PC2): 461 ± 75 µM

N=C(N)NCCC[C@H](NC(=O)[C@H](CCCNC(=N)N)NC(=O)[C@H](CCCNC(=N)N)NC(=O)[C@H](CCCNC(=N)N)NC(=O)[C@H](CCCNC(=N)N)NC(=O)[C@H](CCCNC(=N)N)NC(=O)[C@@H](N)CCCNC(=N)N)C(=O)O [Hepta-L-arginine]
Ki (PC1): 5.2 ± 1.2 µM
Ki (PACE4): 0.24 ± 0.045 µM

CC(=O)N[C@H](Cc1c[nH]c2ccccc12)C(=O)N[C@H](CCCNC(=N)N)C(=O)N[C@H](CCCNC(=N)N)C(=O)N[C@H](CCCNC(=N)N)C(=O)N[C@H](CCCNC(=N)N)C(=O)N[C@H](CC(C)C)C(N)=O [Ac-wrrrrl-NH2] (Ac-[dW][dR][dR][dR][dR][dL]-NH2)
Ki (recombinant mouse furin): 5.3 ± 1 µM
Ki (PC2): 203 ± 20 µM

Ac-MHKRRR-NH2 [Ac-MHKRRR-NH2]
Ki (PC2): 216 ± 13 µM

Ac-MRKRRR-NH2 [Ac-MRKRRR-NH2]
Ki (PC2): 1500 µM

CC[C@@H](C)[C@@H](NC(=O)[C@@H](CCCNC(=N)N)NC(=O)[C@@H](CCCNC(=N)N)NC(=O)[C@@H](CCCNC(=N)N)NC(=O)[C@@H](Cc1c[nH]c2ccccc12)NC(C)=O)C(=O)N[C@H](CC(C)C)C(N)=O [Ac-wrrril-NH2] (Ac-[dW][dR][dR][dR][dI][dL]-NH2)
Ki (recombinant mouse furin): 22.7 ± 4.3 µM
Ki (PC2): 601 ± 200 µM

CC[C@@H](C)[C@@H](NC(=O)[C@@H](CCCNC(=N)N)NC(=O)[C@@H](CCCNC(=N)N)NC(=O)[C@@H](CCCNC(=N)N)NC(=O)[C@@H](Cc1c[nH]c2ccccc12)NC(C)=O)C(=O)N[C@H](CCCNC(=N)N)C(N)=O [Ac-wrrrir-NH2] (Ac-[dW][dR][dR][dR][dI][dR]-NH2)
Ki (recombinant mouse furin): 7 ± 0.9 µM
Ki (PC2): 399 ± 75 µM

CC(C)C[C@H](NC(=O)[C@@H](N)CC(C)C)C(=O)N[C@@H](CCCNC(=N)N)C(=O)N[C@H](C(=O)N[C@@H](CCCCN)C(=O)N[C@@H](CCCNC(=N)N)C(=O)O)C(C)C [LLRVKR]
increase of inhibitory potency against furin on removing the terminal amide and acetyl groups (recombinant mouse furin; LLRVKR compared with acetylated and amidated form): eight-fold
Ki (PC2): 3.7 ± 0.17 µM

From US7569547B2, “Inhibiting furin with polybasic peptides” (Board of Supervisors of Louisiana State University and …, priority 2001, dated 2009)
